Experimental data: ChEMBL document CHEMBL1201862, “PubChem BioAssay data set” (2004)
Activity calls are given as the source filed them.

Columns and labels:
Format in all cases: functional
[1] = biological target: ALK tyrosine kinase receptor (Homo sapiens, UniProt Q9UM73);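 note: ALK tested as one member of a kinase panel screen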
[2] = biological target: Cyclin-dependent kinase 19 (Homo sapiens, UniProt Q9BWU1); test: Navigating the Kinome. Panel member name: CDC2L6
[3] = biological target: T1, V-type proton ATPase subunit c' (Saccharomyces cerevisiae S288c, UniProt P32842); test: Dose Response with BCECF Assay for V-ATPase inhibitors that increase vacuolar pH, Powder Set 1.; settings: read-out: EC50_MICROM
T1 sequence (P32842 whole entry): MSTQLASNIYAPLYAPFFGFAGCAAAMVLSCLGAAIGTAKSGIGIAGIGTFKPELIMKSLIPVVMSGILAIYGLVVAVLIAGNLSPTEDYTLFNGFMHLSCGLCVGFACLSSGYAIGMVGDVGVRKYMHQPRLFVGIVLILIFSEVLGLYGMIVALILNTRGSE

[4] = biological target: T1, V-type proton ATPase subunit c'; test: Dose Response of Small Molecules that Regulate V-ATPase Proton Transport in Yeast using pHLuorin, Powder Set1.; settings: read-out: EC50_MICROM
[5] = biological target: Serine/threonine-protein kinase pim-1 (Homo sapiens, UniProt P11309)
[6] = biological target: Cell division cycle 7-related protein kinase (Homo sapiens, UniProt O00311);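 note: value obtained from a kinome-wide kinase panel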
Chain of Cell division cycle 7-related protein kinase (O00311 whole entry): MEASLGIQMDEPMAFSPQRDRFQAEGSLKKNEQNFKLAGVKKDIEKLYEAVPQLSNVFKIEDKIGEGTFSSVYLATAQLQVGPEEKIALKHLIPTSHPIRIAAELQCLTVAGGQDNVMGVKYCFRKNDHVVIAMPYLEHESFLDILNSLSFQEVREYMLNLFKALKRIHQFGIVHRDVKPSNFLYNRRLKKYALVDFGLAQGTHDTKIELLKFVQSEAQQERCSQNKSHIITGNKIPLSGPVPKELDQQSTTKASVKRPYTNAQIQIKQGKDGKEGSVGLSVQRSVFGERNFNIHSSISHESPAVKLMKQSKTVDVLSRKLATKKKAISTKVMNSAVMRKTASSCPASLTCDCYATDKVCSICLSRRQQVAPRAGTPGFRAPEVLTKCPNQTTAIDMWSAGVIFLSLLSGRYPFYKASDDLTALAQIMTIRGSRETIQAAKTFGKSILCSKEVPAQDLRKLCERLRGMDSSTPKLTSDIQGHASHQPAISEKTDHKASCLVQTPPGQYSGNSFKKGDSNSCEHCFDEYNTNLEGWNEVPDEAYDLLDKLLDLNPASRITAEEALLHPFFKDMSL

[7] = biological target: Homeodomain-interacting protein kinase 2 (Homo sapiens, UniProt Q9H2X6);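 note: measured within a kinome-wide kinase profiling panel, HIPK2 being one panel member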
Chain of Homeodomain-interacting protein kinase 2 (Q9H2X6 whole entry): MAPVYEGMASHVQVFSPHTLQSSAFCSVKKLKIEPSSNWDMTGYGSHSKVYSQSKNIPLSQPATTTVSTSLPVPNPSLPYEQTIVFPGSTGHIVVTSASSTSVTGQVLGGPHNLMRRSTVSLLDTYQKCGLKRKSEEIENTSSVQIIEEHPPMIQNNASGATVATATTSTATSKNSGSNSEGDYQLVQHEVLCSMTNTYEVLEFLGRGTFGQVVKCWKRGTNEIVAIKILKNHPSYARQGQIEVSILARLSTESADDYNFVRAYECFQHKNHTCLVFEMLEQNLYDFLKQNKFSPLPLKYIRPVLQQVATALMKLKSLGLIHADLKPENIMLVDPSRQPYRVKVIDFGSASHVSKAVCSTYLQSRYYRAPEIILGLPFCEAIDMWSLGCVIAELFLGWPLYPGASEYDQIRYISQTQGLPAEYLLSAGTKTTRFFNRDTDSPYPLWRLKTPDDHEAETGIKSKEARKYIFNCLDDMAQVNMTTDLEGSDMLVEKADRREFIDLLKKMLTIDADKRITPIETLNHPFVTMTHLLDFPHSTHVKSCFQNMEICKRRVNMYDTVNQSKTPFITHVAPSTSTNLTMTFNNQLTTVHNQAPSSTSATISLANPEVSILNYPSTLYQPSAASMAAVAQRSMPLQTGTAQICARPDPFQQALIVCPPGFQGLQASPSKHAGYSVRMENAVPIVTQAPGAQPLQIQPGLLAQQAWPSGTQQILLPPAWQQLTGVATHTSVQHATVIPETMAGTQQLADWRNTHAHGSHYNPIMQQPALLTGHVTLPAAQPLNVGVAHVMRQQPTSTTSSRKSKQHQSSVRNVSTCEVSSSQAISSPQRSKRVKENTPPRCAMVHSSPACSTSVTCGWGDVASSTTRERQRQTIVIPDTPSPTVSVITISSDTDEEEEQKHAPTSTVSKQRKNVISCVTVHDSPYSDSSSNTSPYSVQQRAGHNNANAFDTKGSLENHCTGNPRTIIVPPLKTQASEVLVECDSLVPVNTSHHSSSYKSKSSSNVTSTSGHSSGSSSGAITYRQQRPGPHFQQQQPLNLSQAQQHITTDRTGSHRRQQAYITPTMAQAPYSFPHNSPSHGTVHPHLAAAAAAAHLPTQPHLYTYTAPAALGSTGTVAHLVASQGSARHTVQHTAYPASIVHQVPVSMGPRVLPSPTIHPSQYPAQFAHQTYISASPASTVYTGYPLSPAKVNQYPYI

[8] = biological target: Interleukin-1 receptor-associated kinase 4 (Homo sapiens, UniProt Q9NWZ3)
Chain of Interleukin-1 receptor-associated kinase 4 (Q9NWZ3 whole entry): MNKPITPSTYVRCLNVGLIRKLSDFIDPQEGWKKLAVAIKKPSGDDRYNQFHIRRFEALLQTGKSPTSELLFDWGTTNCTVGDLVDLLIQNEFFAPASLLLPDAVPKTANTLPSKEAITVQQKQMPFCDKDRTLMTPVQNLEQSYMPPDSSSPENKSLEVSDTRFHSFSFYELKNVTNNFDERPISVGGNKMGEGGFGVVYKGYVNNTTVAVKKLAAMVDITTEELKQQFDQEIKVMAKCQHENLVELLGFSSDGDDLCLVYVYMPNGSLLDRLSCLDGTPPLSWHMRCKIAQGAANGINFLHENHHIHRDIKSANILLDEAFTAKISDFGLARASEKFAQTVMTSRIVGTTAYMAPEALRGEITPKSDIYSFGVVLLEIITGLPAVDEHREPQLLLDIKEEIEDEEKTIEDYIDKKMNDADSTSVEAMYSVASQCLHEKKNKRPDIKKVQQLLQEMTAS

[9] = biological target: Glycogen synthase kinase-3 beta (Homo sapiens, UniProt P49841);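 note: value comes from a broad kinome profiling panel, with GSK3B as the panel member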
Chain of Glycogen synthase kinase-3 beta (P49841 whole entry): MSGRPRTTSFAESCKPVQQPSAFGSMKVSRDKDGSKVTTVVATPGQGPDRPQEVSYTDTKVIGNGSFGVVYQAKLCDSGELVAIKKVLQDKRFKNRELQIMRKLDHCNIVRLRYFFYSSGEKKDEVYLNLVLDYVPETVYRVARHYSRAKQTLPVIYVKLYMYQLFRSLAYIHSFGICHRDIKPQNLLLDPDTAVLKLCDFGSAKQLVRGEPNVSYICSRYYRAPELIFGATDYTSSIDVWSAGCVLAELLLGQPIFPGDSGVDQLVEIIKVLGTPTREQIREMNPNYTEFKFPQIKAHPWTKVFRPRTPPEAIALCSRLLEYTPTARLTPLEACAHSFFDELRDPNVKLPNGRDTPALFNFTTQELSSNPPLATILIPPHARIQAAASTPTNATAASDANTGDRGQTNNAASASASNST

[10] = biological target: cAMP-dependent protein kinase catalytic subunit alpha (Homo sapiens, UniProt P17612)
[11] = biological target: Dual specificity protein kinase CLK4 (Homo sapiens, UniProt Q9HAZ1)
Chain of Dual specificity protein kinase CLK4 (Q9HAZ1 whole entry): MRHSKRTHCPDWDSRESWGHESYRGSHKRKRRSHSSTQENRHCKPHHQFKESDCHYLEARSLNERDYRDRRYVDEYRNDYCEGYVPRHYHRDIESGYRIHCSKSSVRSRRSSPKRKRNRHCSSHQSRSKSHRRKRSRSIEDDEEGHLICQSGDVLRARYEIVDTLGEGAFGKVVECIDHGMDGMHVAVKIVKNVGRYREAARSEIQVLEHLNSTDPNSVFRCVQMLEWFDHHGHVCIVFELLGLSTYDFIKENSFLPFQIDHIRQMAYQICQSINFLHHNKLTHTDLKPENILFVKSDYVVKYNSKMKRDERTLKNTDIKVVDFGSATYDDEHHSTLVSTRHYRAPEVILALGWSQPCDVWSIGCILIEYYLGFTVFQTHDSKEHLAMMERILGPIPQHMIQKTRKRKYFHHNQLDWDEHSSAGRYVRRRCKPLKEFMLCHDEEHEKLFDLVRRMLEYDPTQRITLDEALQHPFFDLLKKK

[12] = biological target: Mitogen-activated protein kinase kinase kinase kinase 4 (Homo sapiens, UniProt O95819)
Aurora kinase B = Aurora kinase B (Homo sapiens, UniProt Q96GD4)
Chain of Aurora kinase B (Q96GD4 whole entry): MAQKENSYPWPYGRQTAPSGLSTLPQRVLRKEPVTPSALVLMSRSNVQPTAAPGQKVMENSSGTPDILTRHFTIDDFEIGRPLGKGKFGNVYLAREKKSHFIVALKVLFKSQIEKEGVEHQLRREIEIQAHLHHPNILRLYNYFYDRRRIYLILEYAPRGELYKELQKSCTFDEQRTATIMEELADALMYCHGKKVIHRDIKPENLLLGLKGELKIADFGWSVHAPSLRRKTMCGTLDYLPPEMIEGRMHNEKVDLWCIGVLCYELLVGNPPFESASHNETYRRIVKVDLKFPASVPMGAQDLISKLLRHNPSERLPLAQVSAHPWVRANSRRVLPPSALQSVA

[13] = biological target: Serine/threonine-protein kinase BRSK1 (Homo sapiens, UniProt Q8TDC3);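 note: measured within a kinome-wide kinase panel, with the target listed as KIAA1811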
Chain of Serine/threonine-protein kinase BRSK1 (Q8TDC3 whole entry): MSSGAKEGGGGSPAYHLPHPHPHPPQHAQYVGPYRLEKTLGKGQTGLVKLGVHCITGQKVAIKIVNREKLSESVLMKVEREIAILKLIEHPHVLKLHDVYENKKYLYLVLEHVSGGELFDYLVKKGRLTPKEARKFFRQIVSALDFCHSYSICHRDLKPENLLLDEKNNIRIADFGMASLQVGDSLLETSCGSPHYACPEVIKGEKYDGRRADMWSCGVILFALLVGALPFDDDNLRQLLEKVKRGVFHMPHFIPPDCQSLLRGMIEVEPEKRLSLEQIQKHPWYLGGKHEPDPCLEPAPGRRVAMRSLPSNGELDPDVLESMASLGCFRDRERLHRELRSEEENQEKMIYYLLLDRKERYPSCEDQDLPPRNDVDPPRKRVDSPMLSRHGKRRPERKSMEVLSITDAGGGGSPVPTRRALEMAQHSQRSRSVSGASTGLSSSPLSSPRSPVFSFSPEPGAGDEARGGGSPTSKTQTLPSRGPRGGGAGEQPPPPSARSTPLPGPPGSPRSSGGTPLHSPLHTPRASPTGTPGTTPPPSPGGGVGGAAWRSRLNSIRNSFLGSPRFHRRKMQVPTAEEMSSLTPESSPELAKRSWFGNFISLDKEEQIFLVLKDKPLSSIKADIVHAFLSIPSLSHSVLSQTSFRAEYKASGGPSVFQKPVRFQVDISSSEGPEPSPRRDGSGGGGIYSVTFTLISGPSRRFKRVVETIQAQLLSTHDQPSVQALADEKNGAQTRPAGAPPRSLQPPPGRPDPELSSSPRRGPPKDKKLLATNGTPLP

Chain of Cyclin-dependent kinase 19 (Q9BWU1 whole entry): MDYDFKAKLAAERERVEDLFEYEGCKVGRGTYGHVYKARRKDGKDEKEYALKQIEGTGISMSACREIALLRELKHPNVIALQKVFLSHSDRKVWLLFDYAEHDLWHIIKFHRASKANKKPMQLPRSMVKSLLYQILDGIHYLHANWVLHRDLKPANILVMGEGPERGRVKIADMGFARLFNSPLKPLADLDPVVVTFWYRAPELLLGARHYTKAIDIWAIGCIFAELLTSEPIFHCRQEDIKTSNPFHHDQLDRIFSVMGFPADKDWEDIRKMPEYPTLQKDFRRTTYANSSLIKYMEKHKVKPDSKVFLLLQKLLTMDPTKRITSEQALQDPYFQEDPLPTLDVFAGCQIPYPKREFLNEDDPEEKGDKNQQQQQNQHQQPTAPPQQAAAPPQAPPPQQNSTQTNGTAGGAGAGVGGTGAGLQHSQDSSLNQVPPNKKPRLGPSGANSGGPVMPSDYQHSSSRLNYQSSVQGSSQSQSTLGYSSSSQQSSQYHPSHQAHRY

CCNC(=O)c1cnc(N)c2c(-c3ccc(NC(=O)Nc4cccc(Cl)c4)cc3)csc12
Ki [1]: 158 nM (active)
Ki [2]: > 100 µM (inactive)

O=C(c1ccc([N+](=O)[O-])o1)N1CCN(c2ccc(C(F)(F)F)cn2)CC1
EC50 [3]: 1.59 µM (active)
EC50 [4]: 9.82 µM (active)

COc1ccccc1C(=O)Nc1n[nH]c2ccc(-c3cn(Cc4ccccc4)nn3)cc12
Ki [5]: 501 nM (active)
Ki [6]: 3.98 nM (active)
Ki [7]: 20 nM (active)
Ki [8]: > 10 µM (inactive)
Ki [9]: 5.01 nM (active)
Ki [10]: > 7.94 µM (inactive)
Ki [11]: 3.98 nM (active)
Ki [12]: 79.4 nM (active)

CCc1cccc2c1n(CC)c(=N)n2CC(=O)c1ccc(Br)cc1
Ki (Aurora kinase B): 2.51 µM (active)
Ki [13]: 2 µM (active)
